Source: patent publication US8669249B2, “Poly (ADP-ribose) polymerase (PARP) inhibitors” (Takeda Pharmaceutical Company Limited, priority 2009, dated 2014)
Each block holds one molecule with its values, some of them ahead of it.

Experiments:
PARP = target: T1, PARP (Homo sapiens, UniProt P09874); test: PARP ELISA (ELISA-based colorimetric PARP/Apoptosis Assay kit, Trevigen); format: biochemical; conditions: pIC50=-log10 IC50, IC50 in mol/L; inhibition of PARP catalytic activity
T1 construct: purchased Trevigen 4684-096-K HT (kit); 4684-096-01 (PARP enzyme)
T1 sequence (P09874 whole entry): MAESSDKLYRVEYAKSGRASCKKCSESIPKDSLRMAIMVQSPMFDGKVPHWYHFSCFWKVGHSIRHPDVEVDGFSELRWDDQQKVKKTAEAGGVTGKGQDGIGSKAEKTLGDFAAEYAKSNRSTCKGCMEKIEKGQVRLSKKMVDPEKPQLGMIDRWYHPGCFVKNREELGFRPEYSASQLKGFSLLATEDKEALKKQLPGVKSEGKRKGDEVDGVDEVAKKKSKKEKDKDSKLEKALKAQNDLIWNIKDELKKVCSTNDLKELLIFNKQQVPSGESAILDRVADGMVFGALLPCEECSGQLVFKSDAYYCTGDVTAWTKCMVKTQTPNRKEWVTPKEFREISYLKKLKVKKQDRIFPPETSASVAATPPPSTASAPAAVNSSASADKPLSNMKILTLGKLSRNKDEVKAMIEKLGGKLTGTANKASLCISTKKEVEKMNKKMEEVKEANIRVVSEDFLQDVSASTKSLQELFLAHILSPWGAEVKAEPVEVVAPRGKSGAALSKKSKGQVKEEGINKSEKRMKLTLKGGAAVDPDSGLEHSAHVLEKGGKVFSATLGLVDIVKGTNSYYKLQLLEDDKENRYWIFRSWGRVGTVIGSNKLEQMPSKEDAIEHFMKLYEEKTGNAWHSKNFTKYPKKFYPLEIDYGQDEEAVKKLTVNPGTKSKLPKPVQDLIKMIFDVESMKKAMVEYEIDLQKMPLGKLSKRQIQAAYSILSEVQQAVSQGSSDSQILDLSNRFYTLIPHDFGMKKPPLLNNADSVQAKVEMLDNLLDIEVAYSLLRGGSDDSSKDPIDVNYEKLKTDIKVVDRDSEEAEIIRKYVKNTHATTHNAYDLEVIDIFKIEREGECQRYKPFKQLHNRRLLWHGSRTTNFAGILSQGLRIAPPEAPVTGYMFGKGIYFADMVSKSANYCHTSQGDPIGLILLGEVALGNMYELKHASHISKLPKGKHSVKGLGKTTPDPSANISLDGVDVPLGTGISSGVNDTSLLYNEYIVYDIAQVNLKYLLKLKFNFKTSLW
Outline: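 Quenched after 10 min catalysis by aspiration and four PBS/0.1% Triton X-100 washes. Poly(ADP-ribose) detected with mouse anti-PAR monoclonal antibody, goat anti-mouse IgG-HRP and HRP substrate; colorimetric signal proportional to PARP catalytic activity.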

[1] = target: T2, catalytic domain of Human PARP (Homo sapiens, UniProt P09874); test: Biacore surface plasmon resonance affinity assay; format: binding; conditions: pKD=-log10 KD, KD in mol/L; Biacore T100, 25° C.; read-out: pKD (converted)
T2 construct: The catalytic domain of Human PARP was cloned and prepared; made in house
T2 sequence (P09874 788-1014 limits assumed): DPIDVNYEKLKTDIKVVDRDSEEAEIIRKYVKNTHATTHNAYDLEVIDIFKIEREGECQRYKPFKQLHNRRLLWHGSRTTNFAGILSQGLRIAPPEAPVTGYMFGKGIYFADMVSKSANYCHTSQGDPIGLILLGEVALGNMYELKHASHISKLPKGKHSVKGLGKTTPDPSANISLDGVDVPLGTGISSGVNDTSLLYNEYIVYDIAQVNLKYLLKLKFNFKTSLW
Outline: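 Human PARP catalytic domain amine-coupled to CM5 chip; compounds run as 2-fold series in HBS-P with 1% DMSO, 0.5 mM TCEP, 5 mM MgCl2.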

Jurkat cell line = test: PARP cellular chemopotentiation assay (MTS, with/without TMZ); format: cell-based; conditions: Chemopotentiation factor: ratio of EC50 values of Jurkat cells co-treated without and with 100 μM TMZ; 96 hours
Outline: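 Jurkat cells, 10,000/well, pre-cultured 24 h, then treated 96 h with serial compound dilutions (0.5% DMSO) with or without 100 μM TMZ. Viability by MTS conversion (OD490), normalized to DMSO controls; EC50 from curve fits, PF50 = EC50 without TMZ / EC50 with TMZ.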

IC50 (PARP): ≥ 126 nM
Kd [1]: 12.6 to 100 nM
SMILES: CC1Oc2ccc(CN3CCN(c4ccc(C(F)(F)F)cc4)CC3)cc2NC1=O (stereo not drawn) [Compound 222, 2-Methyl-6-((4-(4-(trifluoromethyl)phenyl)piperazin-1-yl)methyl)-2H-benzo[b][1,4]oxazin-3(4H)-one]
PF50 (Jurkat cell line): 1.0-1.9

IC50 (PARP): ≤ 31.6 nM
Kd [1]: ≤ 10 nM
SMILES: CNC(=O)c1ccc(N2CCN(Cc3ccc4c(c3)NC(=O)C(C)O4)CC2)cc1 (stereo not drawn) [Compound 223, N-Methyl-4-(4-((2-methyl-3-oxo-3,4-dihydro-2H-benzo[b][1,4]oxazin-6-yl)methyl)piperazin-1-yl)benzamide]
PF50 (Jurkat cell line): ≦0.9

IC50 (PARP): 39.8 to 100 nM
Kd [1]: 12.6 to 100 nM
SMILES: CC(C)NC(=O)c1ccc(N2CCN(Cc3ccc4c(c3)NC(=O)C(C)O4)CC2)nc1 (stereo not drawn) [Compound 238, N-Isopropyl-6-(4-((2-methyl-3-oxo-3,4-dihydro-2H-benzo[b][1,4]oxazin-6-yl)methyl)piperazin-1-yl)nicotinamide]
PF50 (Jurkat cell line): 1.0-1.9

IC50 (PARP): 39.8 to 100 nM
Kd [1]: ≤ 10 nM
SMILES: COC(=O)c1ccc(N2CCN(Cc3ccc4c(c3)NC(=O)C(C)O4)CC2)cc1 (stereo not drawn) [Compound 220, Methyl 4-(4-((2-methyl-3-oxo-3,4-dihydro-2H-benzo[b][1,4]oxazin-6-yl)methyl)piperazin-1-yl)benzoate]
PF50 (Jurkat cell line): 1.0-1.9

IC50 (PARP): ≤ 31.6 nM
Kd [1]: ≤ 10 nM
SMILES: CNC(=O)c1ccc(N2CCN(Cc3cc(C)c4c(c3)NC(=O)C(C)O4)CC2)cc1 (stereo not drawn) [Compound 257, 4-(4-((2,8-Dimethyl-3-oxo-3,4-dihydro-2H-benzo[b][1,4]oxazin-6-yl)methyl)piperazin-1-yl)-N-methylbenzamide]
PF50 (Jurkat cell line): 2.0-9.9

IC50 (PARP): ≥ 126 nM
Kd [1]: ≤ 10 nM
SMILES: CCOC(=O)c1ccc(N2CCN(Cc3ccc4c(c3)NC(=O)C(C)O4)CC2)cc1 (stereo not drawn) [Compound 217, Ethyl 4-(4-((2-methyl-3-oxo-3,4-dihydro-2H-benzo[b][1,4]oxazin-6-yl)methyl)piperazin-1-yl)benzoate]
PF50 (Jurkat cell line): ≦0.9

IC50 (PARP): 39.8 to 100 nM
Kd [1]: ≤ 10 nM
SMILES: CNC(=O)c1ccc(N2CCN(Cc3cc(F)c4c(c3)NC(=O)C(C)O4)CC2)cc1 (stereo not drawn) [Compound 271, 4-(4-((8-Fluoro-2-methyl-3-oxo-3,4-dihydro-2H-benzo[b][1,4]oxazin-6-yl)methyl)piperazin-1-yl)-N-methylbenzamide]
PF50 (Jurkat cell line): ≦0.9

IC50 (PARP): ≤ 31.6 nM
Kd [1]: < 31.6 nM
SMILES: CCNC(=O)c1ccc(N2CCN(Cc3cc4c(c(OC)c3)OC(C)C(=O)N4)CC2)cc1 (stereo not drawn) [Compound 162, N-Ethyl-4-(4-((8-methoxy-2-methyl-3-oxo-3,4-dihydro-2H-benzo[b][1,4]oxazin-6-yl)methyl)piperazin-1-yl)benzamide]
PF50 (Jurkat cell line): 2.0-9.9

IC50 (PARP): 39.8 to 100 nM
Kd [1]: ≤ 10 nM
SMILES: COC(=O)c1ccc(N2CCN(Cc3ccc4c(c3)NC(=O)C(C)O4)CC2)nc1 (stereo not drawn) [Compound 232, Methyl 6-(4-((2-methyl-3-oxo-3,4-dihydro-2H-benzo[b][1,4]oxazin-6-yl)methyl)piperazin-1-yl)nicotinate]
PF50 (Jurkat cell line): 1.0-1.9

IC50 (PARP): ≤ 31.6 nM
Kd [1]: ≤ 10 nM
SMILES: CCNC(=O)c1ccc(N2CCN(Cc3ccc4c(c3)NC(=O)C(C)O4)CC2)nc1 (stereo not drawn) [Compound 236, N-Ethyl-6-(4-((2-methyl-3-oxo-3,4-dihydro-2H-benzo[b][1,4]oxazin-6-yl)methyl)piperazin-1-yl)nicotinamide]
PF50 (Jurkat cell line): ≦0.9

More lines, now with the values behind:

SMILES: CCNC(=O)c1ccc(N2CCN(Cc3cc(C)c4c(c3)NC(=O)C(C)O4)CC2)nc1 (stereo not drawn) [Compound 261, 6-(4-((2,8-Dimethyl-3-oxo-3,4-dihydro-2H-benzo[b][1,4]oxazin-6-yl)methyl)piperazin-1-yl)-N-ethylnicotinamide]
IC50 (PARP): 39.8 to 100 nM
Kd [1]: ≤ 10 nM
PF50 (Jurkat cell line): 2.0-9.9

SMILES: COc1cc(CN2CCN(c3ccccc3)CC2)cc2c1OC(C)C(=O)N2 (stereo not drawn) [Compound 156, 8-Methoxy-2-methyl-6-((4-phenylpiperazin-1-yl)methyl)-2H-benzo[b][1,4]oxazin-3(4H)-one]
IC50 (PARP): ≥ 126 nM
Kd [1]: ≤ 10 nM
PF50 (Jurkat cell line): 1.0-1.9

SMILES: CC1Oc2c(F)cc(CN3CCN(c4ccc(C#N)cn4)CC3)cc2NC1=O (stereo not drawn) [Compound 267, 6-(4-((8-fluoro-2-methyl-3-oxo-3,4-dihydro-2H-benzo[b][1,4]oxazin-6-yl)methyl)piperazin-1-yl)nicotinonitrile]
IC50 (PARP): ≤ 31.6 nM
Kd [1]: ≤ 10 nM
PF50 (Jurkat cell line): 1.0-1.9

SMILES: Cc1cc(CN2CCN(c3ccc(C(=O)NC4CC4)cc3)CC2)cc2c1OC(C)C(=O)N2 (stereo not drawn) [Compound 259, N-Cyclopropyl-4-(4-((2,8-dimethyl-3-oxo-3,4-dihydro-2H-benzo[b][1,4]oxazin-6-yl)methyl)piperazin-1-yl)benzamide]
IC50 (PARP): ≤ 31.6 nM
Kd [1]: ≤ 10 nM
PF50 (Jurkat cell line): ≧10.0

SMILES: CC1Oc2ccc(CN3Cc4ccc(NC(=O)C5CC5)cc4C3)cc2NC1=O (stereo not drawn) [Compound 243, N-(2-((2-Methyl-3-oxo-3,4-dihydro-2H-benzo[b][1,4]oxazin-6-yl)methyl)isoindolin-5-yl)cyclopropanecarboxamide]
IC50 (PARP): ≥ 126 nM
Kd [1]: 1260 to 10000 nM
PF50 (Jurkat cell line): ≦0.9

SMILES: Cc1cc(CN2CCN(c3ccc(C#N)cn3)CC2)cc2c1OC(C)C(=O)N2 (stereo not drawn) [Compound 254, 6-(4-((2,8-Dimethyl-3-oxo-3,4-dihydro-2H-benzo[b][1,4]oxazin-6-yl)methyl)piperazin-1-yl)nicotinonitrile]
IC50 (PARP): ≤ 31.6 nM
Kd [1]: 12.6 to 100 nM
PF50 (Jurkat cell line): 2.0-9.9

SMILES: CC1Oc2ccc(CN3CCN(c4ccc(Cl)cn4)CC3)cc2NC1=O (stereo not drawn) [Compound 61, 6-((4-(5-Chloropyridin-2-yl)piperazin-1-yl)methyl)-2-methyl-2H-benzo[b][1,4]oxazin-3(4H)-one]
IC50 (PARP): 39.8 to 100 nM
Kd [1]: ≤ 10 nM
PF50 (Jurkat cell line): ≦0.9

SMILES: COc1cc(CN2CCN(c3ccc(C(=O)NC(C)C)cc3)CC2)cc2c1OC(C)C(=O)N2 (stereo not drawn) [Compound 164, N-Isopropyl-4-(4-((8-methoxy-2-methyl-3-oxo-3,4-dihydro-2H-benzo[b][1,4]oxazin-6-yl)methyl)piperazin-1-yl)benzamide]
IC50 (PARP): ≤ 31.6 nM
Kd [1]: < 31.6 nM
PF50 (Jurkat cell line): ≧10.0

SMILES: CCC1Oc2ccc(CN3CCN(c4ccccc4O)CC3)cc2NC1=O (stereo not drawn) [Compound 197, 2-Ethyl-6-((4-(2-hydroxyphenyl)piperazin-1-yl)methyl)-2H-benzo[b][1,4]oxazin-3(4H)-one]
IC50 (PARP): ≥ 126 nM
Kd [1]: ≤ 10 nM
PF50 (Jurkat cell line): 1.0-1.9

SMILES: CC1Oc2ccc(CN3CCN(c4ccc(C(=O)NCC5CC5)cn4)CC3)cc2NC1=O (stereo not drawn) [Compound 234, N-(Cyclopropylmethyl)-6-(4-((2-methyl-3-oxo-3,4-dihydro-2H-benzo[b][1,4]oxazin-6-yl)methyl)piperazin-1-yl)nicotinamide]
IC50 (PARP): 39.8 to 100 nM
Kd [1]: ≤ 10 nM
PF50 (Jurkat cell line): 1.0-1.9
